Results: paper PMC6754406, “Ran pathway-independent regulation of mitotic Golgi disassembly by Importin-α” (Nature Communications, 2019)
Where a SMILES comes first, the peptide text is derived from it. Where no end group is shown, it is not given here. [ ]: non-standard residue; d: D form. pS = N[C@@H](COP(=O)(O)O)C(=O)O

How the values were obtained:
Importin-β [1] = target: T1, Importin-β (Homo sapiens, UniProt Q14974); test: Isothermal titration calorimetry (ITC), Importin-β; type: binding; details: for ITC profile (exothermic / endothermic): 25 °C
T1 construct: GST (N, cleaved yes); made in house; host or cells: Escherichia coli Rosetta
Source text: Homo sapiens GM130 (a.a. 1–48), GM130 (a.a. 1–85), and Importin-β were amplified by PCR and ligated into pGEX-6P-1 (GE Healthcare). H. sapiens full-length Importin-α and Mus musculus Importin-α were amplified by PCR and ligated into modified pGEX-6P-1 (GE Healthcare) that produces proteins with 6-His at the C–terminus. Mouse Importin-α shares ~95% identity with human Importin-α over the full protein sequence, so we used the former for biochemical and structural studies. GM130-S25D (a.a. 1–48), GM130-S25D (a.a. 1–85), GM130-S25D/K14A (a.a. 1–85), and GM130-S25D/K34A (a.a. 1–85) mutants were created by PCR-based mutagenesis and were verified by sequencing. A list of primer sequences used in this study is shown in Supplementary Table 1.
Binding affinities of different GM130 proteins to Importin-α and Importin-β were measured by ITC (MicroCal iTC200). All proteins were dialyzed against ITC buffer (20 mM HEPES pH 7.4, 1 mM DTT) with either 50 or 200 mM NaCl. Protein concentrations were determined spectrophotometrically with respective extinction coefficients. ITC was performed at 25 °C. The respective heat changes were fitted using a one-sites binding model.

[2] = target: T2, Importin-α(ΔIBB) (a.a. 70–524) (Mus musculus, UniProt P52293); test: Isothermal titration calorimetry (ITC), Importin-α(ΔIBB); type: binding; details: 200 mM NaCl
T2 construct: Importin-α lacking the IBB domain (a.a. 70–524; hereafter Importin-α(ΔIBB)); GST (N); made in house; host or cells: Escherichia coli Rosetta
Source text: Phosphorylation of GM130 on Ser-25 is correlated with p115 dissociation, with this process appearing to be specific to mitosis and being responsible for reduction of p115-mediated vesicle fusion to Golgi membranes[5]–[7],[9],[10]. The N-terminal region of GM130 and the p115 C-terminus interact[11],[12], so we purified recombinant proteins containing these two regions and then assessed their binding affinity by isothermal titration calorimetry (ITC). The wild type GM130 N-terminal region (a.a. 1-85; hereafter GM130-WT) directly bound p115 (a.a. 780–930; hereafter p115-CTD) (Fig. 1a). Furthermore, we examined if GM130 phosphorylation reduces the binding affinity for p115. […] We found in competition-binding assays that p115-CTD pulldown by GST-GM130-S25D was reduced when we added increasing amounts of Importin-α lacking the IBB domain (a.a. 70–524; hereafter Importin-α(ΔIBB)) (Fig. 1c). […] Therefore, we propose that binding of Importin-α to GM130 could be primarily responsbile for preventing interaction between p115 and GM130 during mitosis.
Homo sapiens GM130 (a.a. 1–48), GM130 (a.a. 1–85), and Importin-β were amplified by PCR and ligated into pGEX-6P-1 (GE Healthcare). […]
Binding affinities of different GM130 proteins to Importin-α and Importin-β were measured by ITC (MicroCal iTC200). […] Protein concentrations were determined spectrophotometrically with respective extinction coefficients. […]

[3] = tested on: p115 associated with GM130; test: Immuno-precipitation of p115 with GM130 antibody, RO-3306-treated nocodazole-arrested HEK293T cells; type: cell-based; details: RO-3306-treated vs untreated, 10 µM/ml, 2 h; three independent experiments
Procedure: (§1) To pull down endogenous GM130, HEK293T cells were synchronized via nocodazole treatment and lysed in a buffer containing 50 mM Tris–HCl (pH 7.4), 150 mM NaCl, 1 mM EDTA, 10% glycerol, 1% Triton, 0.15% SDS, protease inhibitor cocktail (Roche), and 1 mM PMSF. Clarified lysates were pre-incubated with GM130 antibody (Abcam ab52649) for 12 h at 4 °C, followed by one hour incubation with IgG sepharose^TM 6 Fast Flow (GE Healthcare). Beads were then washed three times with buffer (20 mM HEPES pH 7.4, 150 mM NaCl, 1.5 mM MgCl2, 10% glycerol, 0.1% Triton). Protein samples were boiled in SDS sample buffer and analyzed by SDS–PAGE, followed by Western blotting analysis.
(§2) To prepare Cdk1 inhibitor treated lysates for GM130 pull-down assays, WT HEK293T cells were synchronized by 30 µM of nocodazole for 13 h, followed by treatment of Cdk1 inhibitor RO-3306 (10 µM/ml) (Sigma, cat#SML0569) for 2 h.
(§3) Sup ple me ntary Figu re 5. Cell-base d e xam ination of the K34A mutation of G M130. a, Representative fluorescent images of w ild-type and two K34A mutant cell lines at metaphase.
(§4) Sca le b a r : 1 0 µm. b, Images of nocodaz o le-ar r e st ed H EK 2 9 3 T ce ll s without (left) and w ith (right) RO-3306 treatment acquired by bright-field illum ination. Sc ale ba r: […]

Cdk1 = details: 1-h RO-3306 treatment; ref [23]; cited from earlier work
[4] = tested on: Importin-α associated with GM130; test: Immuno-precipitation of Importin-α with GM130 antibody, RO-3306-treated nocodazole-arrested HEK293T cells; type: cell-based; details: RO-3306-treated vs untreated, 10 µM/ml, 2 h; three independent experiments
Procedure: as §1, §2, §3, §4

Importin-β [5] = target: T1, Importin-β; test: Size exclusion chromatography co-migration with Importin-β; type: binding; details: Superdex 200, 20 mM HEPES pH 7.4, 50 mM NaCl, 3 mM DTT, 1:1
Procedure: Fig. 4 Ran and a phosphate moiety repress GM130 and Importin-β interaction. a SEC (Superdex 200) elution profiles for the Importin-β•GST-GM130-WT complex (black line), Importin-β (gray line), and GST-GM130-WT (light gray line). The void volume (Vo) is indicated. b–d The peak fractions of the Importin-β•GST-GM130-WT complex (b), Importin-β (c), and GST-GM130-WT (d) were analyzed by SDS–PAGE and stained with Coomassie blue. e, f ITC titration curves (upper) and binding isotherms (lower) of Importin-β with GM130-NLS WT (e) and GM130-NLS phospho-S25 (f). Kd values are indicated. g Competition binding assay. GST-GM130-S25D and Importin-β were incubated with indicated concentrations of GFP-IBB. Samples pulled down by GST beads were analyzed by SDS–PAGE and stained with Coomassie blue. […] GST-bound samples were analyzed by SDS–PAGE and stained with Coomassie blue. i, k Band intensities of Importin-α or Importin-β from the SDS–PAGE gels in h, j were used to determine averages of bound protein. […]
GST-GM130-WT and GST-GM130-S25D were, respectively, incubated with Importin-β or Importin-α FL in a molar ratio of 1:1. […] Peak fractions were analyzed by SDS–PAGE.

T1 sequence (Q14974 whole entry): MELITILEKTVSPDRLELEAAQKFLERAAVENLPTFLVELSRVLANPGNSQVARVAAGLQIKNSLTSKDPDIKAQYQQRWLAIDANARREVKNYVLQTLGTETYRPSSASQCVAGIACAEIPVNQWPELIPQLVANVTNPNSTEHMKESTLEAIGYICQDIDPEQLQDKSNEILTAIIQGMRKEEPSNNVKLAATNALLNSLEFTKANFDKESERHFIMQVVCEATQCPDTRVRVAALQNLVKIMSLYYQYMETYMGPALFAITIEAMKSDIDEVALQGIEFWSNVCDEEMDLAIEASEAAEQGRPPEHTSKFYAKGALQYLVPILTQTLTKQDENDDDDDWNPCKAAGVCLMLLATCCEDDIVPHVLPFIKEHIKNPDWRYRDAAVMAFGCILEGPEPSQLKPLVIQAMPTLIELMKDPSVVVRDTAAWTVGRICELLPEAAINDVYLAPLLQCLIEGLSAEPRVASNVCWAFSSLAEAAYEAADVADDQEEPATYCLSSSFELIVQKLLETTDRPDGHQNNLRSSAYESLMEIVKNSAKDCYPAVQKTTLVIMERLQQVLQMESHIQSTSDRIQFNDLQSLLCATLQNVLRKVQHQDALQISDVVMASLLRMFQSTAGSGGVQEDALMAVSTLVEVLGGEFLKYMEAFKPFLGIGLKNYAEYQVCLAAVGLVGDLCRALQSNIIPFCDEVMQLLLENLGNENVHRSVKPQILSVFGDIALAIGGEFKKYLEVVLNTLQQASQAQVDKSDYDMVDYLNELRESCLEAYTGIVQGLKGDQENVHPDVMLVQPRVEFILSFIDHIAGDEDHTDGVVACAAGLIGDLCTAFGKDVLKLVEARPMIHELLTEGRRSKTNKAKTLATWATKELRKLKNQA

Compound | ITC profile (exothermic / endothermic) (Importin-β [1]) | binding constant relative to wild-type GM130 peptide (Importin-β [1]; relative to wild-type GM130 peptide) | binding affinity for Importin-α(ΔIBB) vs wild type [2] | p115 pulldown by GM130 [3] | block of Cdk1 activity (Cdk1) | morphological transition (Cdk1) | Importin-α pulldown by GM130 [4] | co-migration with Importin-β by SEC (Importin-β [5])
CC[C@H](C)[C@H](NC(=O)[C@H](CCCCN)NC(=O)[C@H](CCCCN)NC(=O)[C@H](CCCCN)NC(=O)[C@H](CCCCN)NC(=O)[C@H](CCCCN)NC(=O)[C@H](C)NC(=O)CNC(=O)[C@@H](NC(=O)[C@@H]1CCCN1C(=O)[C@@H](NC(=O)CNC(=O)[C@@H]1CCCN1C(=O)[C@H](COP(=O)(O)O)NC(=O)[C@H](CC(N)=O)NC(=O)[C@H](CCCNC(=N)N)NC(=O)[C@H](CCC(N)=O)NC(=O)[C@H](CCC(N)=O)NC(=O)[C@H](Cc1ccc(O)cc1)NC(=O)[C@H](CCC(=O)O)NC(=O)[C@H](CCCNC(=N)N)NC(=O)[C@H](CC(C)C)NC(=O)[C@H](CCCCN)NC(=O)[C@H](CCCCN)NC(=O)[C@H](CCCCN)NC(=O)[C@H](C)N)C(C)C)[C@@H](C)O)C(=O)N[C@@H](CCCCN)C(=O)N[C@@H](CC(N)=O)C(=O)O [GM130-NLS phospho-S25] (H-AKKKLREYQQRN[pS]PGVPTGAKKKKKIKN-OH; N-terminus and C-terminus assumed) | endothermic curve | at least three orders of magnitude lower | better binding affinities |  |  |  |  | 
O=C1NC(=NCc2cccs2)S/C1=C\c1ccc2ncccc2c1 [RO-3306] |  |  |  | enhanced | sufficient to block Cdk1 activity | morphological transition from rounded mitotic cells to a flat interphase shape | reduced | 
AKKKLREYQQRNSPGVPTGAKKKKKIK [GM130-NLS WT] | exothermic profile |  |  |  |  |  |  | co-migration
